Test results published in patent US20040127446A1 (priority 1992, published 2004).

Each substance was assayed on plus strand HCV RNA. Details: plus strand (+) HCV site, 50 mM Tris-Cl, pH 8.0, 40 mM Mg2+ at 37°, trace substrate, enzymatic nucleic acid concentration of 500 nM or greater.
Format: biochemical, Hepatitis C virus

Substance	% Substrate Cleaved in 3 hours [%]
22973 (AGGUGAAGGCTAGCTACAACGAAGCUGAGN; 3' inverted abasic cap (B); Description of Artificial Sequence: Nucleic Acid; misc_feature (30)..(30): n stands for inverted deoxyabasic derivative; misc_feature (1)..(7): 2'-O-Methyl; misc_feature (23)..(29): 2'-O-Methyl) [compound 22973]	83.15
22974 (CUGGUGAGGCTAGCTACAACGAGGAGGCUN; 3' inverted abasic cap (B); misc_feature (30)..(30): n stands for inverted deoxyabasic derivative; misc_feature (1)..(7): 2'-O-Methyl; misc_feature (23)..(29): 2'-O-Methyl) [compound 22974]	57.82
22975 (UGGUGUAGGCTAGCTACAACGAGCGUUGAN; 3' inverted abasic cap (B); Description of Artificial Sequence: Nucleic Acid; misc_feature (30)..(30): n stands for inverted deoxyabasic derivative; misc_feature (1)..(7): 2'-O-Methyl; misc_feature (23)..(29): 2'-O-Methyl) [compound 22975]	75.77
